In patent publication US9505769B2 (ASCENEURON SA, priority 2013, dated 2016):
Structures can show the parent of a compound that is named as a salt. Where two headings read alike, the source gives them in different places.

Target: T1, human muscarinic acetylcholine M1 receptor (Homo sapiens, UniProt P11229)
T1 construct: expressed in transfected cells; host or cells: CHO-K1
T1 sequence (P11229 1-460): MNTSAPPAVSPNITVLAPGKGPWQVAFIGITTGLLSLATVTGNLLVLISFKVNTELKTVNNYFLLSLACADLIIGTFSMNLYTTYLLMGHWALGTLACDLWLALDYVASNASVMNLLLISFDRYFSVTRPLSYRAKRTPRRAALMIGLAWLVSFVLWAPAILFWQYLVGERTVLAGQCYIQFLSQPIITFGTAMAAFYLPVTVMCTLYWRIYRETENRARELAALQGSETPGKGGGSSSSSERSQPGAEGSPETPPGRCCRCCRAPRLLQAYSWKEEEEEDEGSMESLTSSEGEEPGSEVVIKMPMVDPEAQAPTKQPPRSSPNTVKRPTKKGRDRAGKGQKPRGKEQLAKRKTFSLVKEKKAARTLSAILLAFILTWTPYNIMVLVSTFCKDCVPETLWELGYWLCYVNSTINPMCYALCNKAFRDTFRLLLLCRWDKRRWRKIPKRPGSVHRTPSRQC
Test: M1 PAM Assay (IP-One HTRF, IP1 accumulation in M1-CHO cells)
Type: cell-based
Procedure: Then diluted compounds (0.6% DMSO final concentration) are added together with EC20 of acetylcholine and incubated with the cells for 30 min at 37° C., 5% CO2.
CHO-K1 cells stably transfected with human muscarinic acetylcholine M1 receptor are cultured in Ham's F12 medium containing 10% heat inactivated fetal calf serum, 2 mM L-glutamine and Penicillin-Streptomycin grown in a humidified atmosphere at 5% CO2/95% air at 37° C.

[1] = CHO-K1 cells stably transfected with human M1 receptor, compounds added with EC20 of acetylcholine (25 nM), 30 min, intracellular IP1 by IP-One HTRF, read-out: M1 PAM EC50

Compound | EC50 [1] [nM] | EC50 [nM]
CN1CCC(Oc2cc(F)ccc2C(=O)N2Cc3nn4cc(Cl)cnc4c3C2)CC1 [Example 12, (3-chloro-7H-pyrrolo[3′,4′:3,4]pyrazolo[1,5-a]pyrimidin-8(9H)-yl)(4-fluoro-2-((1-methylpiperidin-4-yl)oxy)phenyl)methanone] | 200 to 1000 | 
Cc1nc2c3c(nn2c(C)c1Cl)CN(C(=O)c1ccc(F)cc1OCCc1cncc(F)c1)C3 [Example 43, (3-chloro-2,4-dimethyl-7H-pyrrolo[3′,4′:3,4]pyrazolo[1,5-a]pyrimidin-8(9H)-yl)(4-fluoro-2-(2-(5-fluoropyridin-3-yl)ethoxy)phenyl)methanone] | < 200 | 
CCc1nc2c3c(nn2c(C)c1Cl)CN(C(=O)c1ccccc1O[C@@H]1CCC[C@H]1O)C3 [Example 9, (anti)-(6-Chloro-5-ethyl-7-methyl-1H,3H-2,4,7a,8-tetraaza-cyclopenta[a]inden-2-yl)-[2-(2-hydroxy-cyclopentyloxy)-phenyl]-methanone or (anti)-(6-Chloro-5-methyl-7-ethyl-1H,3H-2,4,7a,8-tetraaza-cyclopenta[a]inden-2-yl)-[2-(2-hydroxy-cyclopentyloxy)-phenyl]-methanone] | 1000 to 3000 | 
Cc1nc2c3c(nn2c(C)c1Cl)CN(C(=O)c1ccc(F)cc1OCc1cccnc1)C3 [Example 19, (6-Chloro-5,7-dimethyl-1H,3H-2,4,7a,8-tetraaza-cyclopenta[a]inden-2-yl)-[4-fluoro-2-(pyridin-3-ylmethoxy)-phenyl]-methanone] | 1000 to 3000 | 
Cc1nc2c3c(nn2c(C)c1Cl)CN(C(=O)c1ccc(F)cc1OC[C@H]1C[C@H](F)CN1)C3 [Example 55, (6-Chloro-5,7-dimethyl-1H,3H-2,4,7a,8-tetraaza-cyclopenta[a]inden-2-yl)-[4-fluoro-2-((2R,4S)-4-fluoro-pyrrolidin-2-ylmethoxy)-phenyl]-methanone] | 200 to 1000 | 
Cc1nc2c3c(nn2c(C)c1Cl)CN(C(=O)c1ccc(F)cc1OC1CC(N(C)C)C1)C3 (centres unmarked) [Example 71, (6-Chloro-5,7-dimethyl-1H,3H-2,4,7a,8-tetraaza-cyclopenta[a]inden-2-yl)-[2-(3-dimethylamino-cyclobutoxy)-4-fluoro-phenyl]-methanone] | 200 to 1000 | 
Cc1nc2c3c(nn2c(C)c1Cl)CN(C(=O)c1ccccc1C(C)N1CCNCC1)C3 (centres unmarked) [Example 6] | 1000 to 3000 | 
Cc1nc2c3c(nn2c(C)c1Cl)CN(C(=O)c1ccccc1O[C@H]1CNC[C@H]1F)C3 (racemic) [Example 25, (syn)-(6-Chloro-5,7-dimethyl-1H,3H-2,4,7a,8-tetraaza-cyclopenta[a]inden-2-yl)-[2-(4-fluoro-pyrrolidin-3-yloxy)-phenyl]-methanone] | 200 to 1000 | 
Cc1nc2c3c(nn2c(C)c1Cl)CN(C(=O)c1ccc(F)cc1O[C@H]1C[C@H]2CCC[C@@H](C1)N2C)C3 [Example 58, (3-chloro-2,4-dimethyl-7H-pyrrolo[3′,4′:3,4]pyrazolo[1,5-a]pyrimidin-8(9H)-yl)(4-fluoro-2-{[(3-endo)-9-methyl-9-azabicyclo[3.2.1]nonan-3-yl]oxy}phenyl)methanone] |  | 200 to 1000
CCN1[C@@H]2CC[C@H]1C[C@@H](Oc1cc(F)ccc1C(=O)N1Cc3nn4cc(Cl)cnc4c3C1)C2 [Example 63, (3-chloro-7H-pyrrolo[3′,4′:3,4]pyrazolo[1,5-a]pyrimidin-8(9H)-yl)(2-{[(3-endo)-8-ethyl-8-azabicyclo[3.2.1]oct-3-yl]oxy}-4-fluorophenyl)methanone] |  | < 200
CN1C2CC(Oc3cc(F)ccc3C(=O)N3Cc4nn5cc(Cl)cnc5c4C3)CC1[C@@H](O)C2 (mixture of isomers) [Example 69, (3-chloro-7H-pyrrolo[3′,4′:3,4]pyrazolo[1,5-a]pyrimidin-8(9H)-yl)(4-fluoro-2-(((3-endo)-(6-exo)-6-hydroxy-8-methyl-8-azabicyclo[3.2.1]octan-3-yl)oxy)phenyl)methanone] |  | < 200
Cc1nc2c3c(nn2c(C)c1Cl)CN(C(=O)c1ccc(F)cc1OC1CC2CC(F)C(C1)N2C)C3 (racemic) [Example 38, (3-chloro-2,4-dimethyl-7H-pyrrolo[3′,4′:3,4]pyrazolo[1,5-a]pyrimidin-8(9H)-yl)(4-fluoro-2-(((3-endo)-(6-endo)-6-fluoro-8-methyl-8-azabicyclo[3.2.1]octan-3-yl)oxy)phenyl)methanone] |  | < 200
Cc1nc2c3c(nn2c(C)c1Cl)CN(C(=O)c1ccc(F)cc1O[C@H]1C[C@H]2CC[C@@H](C1)N2CCF)C3 [Example 36, (3-chloro-2,4-dimethyl-7H-pyrrolo[3′,4′:3,4]pyrazolo[1,5-a]pyrimidin-8(9H)-yl)(4-fluoro-2-{[(3-endo)-8-(2-fluoroethyl)-8-azabicyclo[3.2.1]oct-3-yl]oxy}phenyl)methanone] |  | < 200
Cc1nc2c3c(nn2c(C)c1Cl)CN(C(=O)c1ccc(F)cc1O[C@H]1CCNC[C@@H]1O)C3 (single isomer, unassigned) [Example 70, (3-chloro-2,4-dimethyl-7H-pyrrolo[3′,4′:3,4]pyrazolo[1,5-a]pyrimidin-8(9H)-yl)(4-fluoro-2-(((3S,4S)-3-hydroxypiperidin-4-yl)oxy)phenyl)methanone hydrochloride or (3-chloro-2,4-dimethyl-7H-pyrrolo[3′,4′:3,4]pyrazolo[1,5-a]pyrimidin-8(9H)-yl)(4-fluoro-2-(((3R,4R)-3-hydroxypiperidin-4-yl)oxy)phenyl)methanone hydrochloride] | 200 to 1000 | 
N#CCN1[C@@H]2CC[C@H]1C[C@@H](Oc1cc(F)ccc1C(=O)N1Cc3nn4cc(Cl)cnc4c3C1)C2 [Example 66, [(3endo)-3-{2[(3-chloro-7H-pyrrolo[3′,4′:3,4]pyrazolo[1,5-a]pyrimidin-8(9H)-yl)carbonyl]-5-fluorophenoxy}-8-azabicyclo[3.2.1]oct-8-yl]acetonitrile] |  | 200 to 1000
Cc1nc2c3c(nn2c(C)c1Cl)CN(C(=O)c1ccc(F)cc1O[C@H]1C[C@H]2CC[C@@H](C1)N2CCO)C3 [Example 37, (3-chloro-2,4-dimethyl-7H-pyrrolo[3′,4′:3,4]pyrazolo[1,5-a]pyrimidin-8(9H)-yl)(4-fluoro-2-{[(3-endo)-8-(2-hydroxyethyl)-8-azabicyclo[3.2.1]oct-3-yl]oxy}phenyl)methanone] |  | < 200
O=C(c1ccc(F)cc1OC1CCN(CCF)CC1)N1Cc2nn3cc(Cl)cnc3c2C1 [Example 34] | 200 to 1000 | 

Further lines, with some results ahead:

EC50 [1] [nM] | Compound | EC50 [nM]
1000 to 3000 | Cc1nc2c3c(nn2c(C)c1Cl)CN(C(=O)c1ccc(F)cc1O[C@H]1COC[C@@H]1O)C3 (racemic) [Example 26, (anti)-(3-chloro-2,4-dimethyl-7H-pyrrolo[3′,4′:3,4]pyrazolo[1,5-a]pyrimidin-8(9H)-yl)(4-fluoro-2-((4-hydroxytetrahydrofuran-3-yl)oxy)phenyl)methanone] | 
200 to 1000 | Cc1nc2c3c(nn2c(C)c1Cl)CN(C(=O)c1ccc(F)cc1O[C@H]1CCNC[C@H]1F)C3 (racemic) [Example 18] | 
< 200 | Cc1nc2c3c(nn2c(C)c1Cl)CN(C(=O)c1ccc(F)cc1O[C@H]1CCNC[C@@H]1F)C3 (racemic) [Example 1] | 
< 200 | Cc1nc2c3c(nn2c(C)c1Cl)CN(C(=O)c1ccc(F)cc1OC1CCN(CCO)CC1)C3 [Example 32, (6-Chloro-5,7-dimethyl-1H,3H-2,4,7a,8-tetraaza-cyclopenta[a]inden-2-yl)-{4-fluoro-2-[1-(2-hydroxy-ethyl)-piperidin-4-yloxy]-phenyl}-methanone] | 
200 to 1000 | Cc1nc2c3c(nn2c(C)c1Cl)CN(C(=O)c1ccc(F)cc1O[C@@H]1CCN[C@@H](C)C1)C3 (stereo in doubt) [Example 24, (3-chloro-2,4-dimethyl-7H-pyrrolo[3′,4′:3,4]pyrazolo[1,5-a]pyrimidin-8(9H)-yl)(4-fluoro-2-((2-methylpiperidin-4-yl)oxy)phenyl)methanone hydrochloride] | 
200 to 1000 | Cc1nc2c3c(nn2c(C)c1Cl)CN(C(=O)c1ccc(F)cc1O[C@H]1CN(C)C[C@@H]1O)C3 (racemic) [Example 45, (anti)-(6-Chloro-5,7-dimethyl-1H,3H-2,4,7a,8-tetraaza-cyclopenta[a]inden-2-yl)-[4-fluoro-2-(4-hydroxy-1-methyl-pyrrolidin-3-yloxy)-phenyl]-methanone] | 
200 to 1000 | Cc1nc2c3c(nn2c(C)c1Cl)CN(C(=O)c1ccc(F)cc1O[C@H]1CCN[C@@H](C)C1)C3 (stereo in doubt) [Example 48, (3-chloro-2,4-dimethyl-7H-pyrrolo[3′,4′:3,4]pyrazolo[1,5-a]pyrimidin-8(9H)-yl)(4-fluoro-2-((2-methylpiperidin-4-yl)oxy)phenyl)methanone hydrochloride] | 
< 200 | Cc1nc2c3c(nn2c(C)c1Cl)CN(C(=O)c1ccc(F)cc1OC1CCN(C(CO)CO)CC1)C3 [Example 29, (6-Chloro-5,7-dimethyl-1H,3H-2,4,7a8-tetraaza-cyclopenta[a]inden-2-y)-{4-fluoro-2-[1-(2-hydroxy-1-hydroxymethyl-ethyl)-piperidin-4-yloxy]-phenyl}-methanone] | 
200 to 1000 | Cc1nc2c3c(nn2c(C)c1Cl)CN(C(=O)c1ccc(F)cc1OCCN1CC[C@@H](F)C1)C3 [Example 62, (6-Chloro-5,7-dimethyl-1H,3H-2,4,7a,8-tetraaza-cyclopenta[a]inden-2-yl)-{4-fluoro-2-[2-((R)-3-fluoro-pyrrolidin-1-yl)-ethoxy]-phenyl}-methanone] | 
